≈ marks a conversion by molar mass, not a printed value.
Legend:
Type in all cases: functional
Staphylococcus warneri = assay: Antibacterial activity against Staphylococcus warneri 1269686
Staphylococcus aureus [1] = assay: Antibacterial activity against oxymycin-sensitive Staphylococcus aureus 1269670
[2] = tested on: Staphylococcus epidermidis; assay: Antibacterial activity against oxymycin-, gentamicin-, levofloxacin-resistant Staphylococcus epidermidis 1269676
Staphylococcus capitis = assay: Antibacterial activity against Staphylococcus capitis 1269682
Escherichia coli [3] = assay: Antibacterial activity against vancomycin-, ciprofloxacin-, gentamicin-resistant Escherichia coli 1269653
Staphylococcus aureus [4] = assay: Antibacterial activity against vancomycin-intermediate and ciprofloxacin-, gentamicin-resistant Staphylococcus aureus 1269618
[5] = tested on: Staphylococcus epidermidis; assay: Antibacterial activity against oxymycin-, gentamicin-, levofloxacin-resistant Staphylococcus epidermidis 1269675
Escherichia coli [6] = assay: Antibacterial activity against vancomycin-, ciprofloxacin-, gentamicin-resistant Escherichia coli 1269652
Escherichia coli [7] = assay: Antibacterial activity against vancomycin-, ciprofloxacin-, gentamicin-sensitive Escherichia coli 1269640
Escherichia coli [8] = assay: Antibacterial activity against Escherichia coli ATCC 25922
Staphylococcus aureus [9] = assay: Antibacterial activity against Staphylococcus aureus ATCC 13709
Escherichia coli [10] = assay: Antibacterial activity against Escherichia coli 0157:H07
Escherichia coli [11] = assay: Antibacterial activity against vancomycin-, ciprofloxacin-, gentamicin-resistant Escherichia coli 1269620
Escherichia coli [12] = assay: Antibacterial activity against vancomycin-, ciprofloxacin-, gentamicin-resistant Escherichia coli 1269621
[13] = tested on: Staphylococcus epidermidis; assay: Antibacterial activity against oxymycin-, gentamicin-, levofloxacin-resistant Staphylococcus epidermidis 1269680
Staphylococcus aureus [14] = assay: Antibacterial activity against oxymycin-sensitive Staphylococcus aureus 1269669
Staphylococcus aureus [15] = assay: Antibacterial activity against vancomycin-, ciprofloxacin-, gentamicin-resistant Staphylococcus aureus 1269617
Staphylococcus aureus [16] = assay: Antibacterial activity against vancomycin-intermediate and ciprofloxacin-, gentamicin-resistant Staphylococcus aureus 1269616
[17] = tested on: Staphylococcus epidermidis; assay: Antibacterial activity against oxymycin and gentamicin-resistant Staphylococcus epidermidis 1269677
Staphylococcus aureus [18] = assay: Antibacterial activity against vancomycin-, ciprofloxacin-, gentamicin-resistant Staphylococcus aureus 1269615
Staphylococcus aureus [19] = assay: Antibacterial activity against vancomycin-sensitive and oxymycin-, ciprofloxacin-, gentamicin-resistant Staphylococcus aureus 9269619
[20] = tested on: Staphylococcus epidermidis; assay: Antibacterial activity against Staphylococcus epidermidis 1269663
Staphylococcus aureus [21] = assay: Antibacterial activity against Staphylococcus aureus ATCC […]

Row | Structure (SMILES) | MIC (Staphylococcus warneri) | MIC (Staphylococcus aureus [1]) | MIC [2] | MIC (Staphylococcus capitis) | MIC (Escherichia coli [3]) | MIC (Staphylococcus aureus [4]) | MIC [5] | MIC (Escherichia coli [6]) | MIC (Escherichia coli [7]) | MIC (Escherichia coli [8]) | MIC (Staphylococcus aureus [9]) | MIC (Escherichia coli [10]) | MIC (Escherichia coli [11]) | MIC (Escherichia coli [12]) | MIC [13] | MIC (Staphylococcus aureus [14]) | MIC (Staphylococcus aureus [15]) | MIC (Staphylococcus aureus [16]) | MIC [17] | MIC (Staphylococcus aureus [18]) | also measured
1 | NCC[C@H](O)C(=O)N[C@@H]1C[C@H](N)[C@@H](O[C@H]2O[C@H](CO)[C@@H](O)[C@H](O)[C@H]2N)[C@H](O[C@@H]2O[C@H](CO)[C@@H](O[C@H]3O[C@@H](CN)[C@@H](O)[C@H](O)[C@H]3N)[C@H]2O)[C@H]1O | 0.25 µg/mL (≈ 0.349 µM) | 4 µg/mL (≈ 5.58 µM) | 0.5 µg/mL (≈ 0.698 µM) | 0.5 µg/mL (≈ 0.698 µM) | 8 µg/mL (≈ 11.2 µM) | > 128 µg/mL | 64 µg/mL (≈ 89.3 µM) | 32 µg/mL (≈ 44.6 µM) | 16 µg/mL (≈ 22.3 µM) | 8 µg/mL (≈ 11.2 µM) | 1.3 µg/mL (≈ 1.81 µM) | 8 µg/mL (≈ 11.2 µM) | 8 µg/mL (≈ 11.2 µM) | 8 µg/mL (≈ 11.2 µM) | 1 µg/mL (≈ 1.4 µM) | 4 µg/mL (≈ 5.58 µM) | > 128 µg/mL | > 128 µg/mL | 16 µg/mL (≈ 22.3 µM) | > 128 µg/mL | MIC (Staphylococcus aureus [19]): > 128 µg/mL; MIC [20]: 1 µg/mL (≈ 1.4 µM); MIC (Staphylococcus aureus [21]): 4 µg/mL (≈ 5.58 µM)
2 | NC[C@@H]1O[C@H](O[C@H]2[C@@H](O)[C@H](O[C@@H]3[C@@H](O)[C@H](N)C[C@H](N)[C@H]3O[C@H]3O[C@H](CO)CC[C@H]3N)O[C@@H]2CO)[C@H](N)[C@@H](O)[C@@H]1O | – | – | – | – | – | – | – | – | – | 20 µg/mL (≈ 34.3 µM) | 5 µg/mL (≈ 8.57 µM) | – | – | – | – | – | – | – | – | – | –
3 | NCC[C@H](O)C(=O)N[C@@H]1C[C@H](N)[C@@H](O[C@H]2O[C@H](CN)[C@@H](O)[C@H](O)[C@H]2N)[C@H](O[C@@H]2O[C@H](CO)[C@@H](O[C@H]3O[C@@H](CN)[C@@H](O)[C@H](O)[C@H]3N)[C@H]2O)[C@H]1O | – | – | – | – | – | – | – | – | – | 2.5 µg/mL (≈ 3.49 µM) | 2.5 µg/mL (≈ 3.49 µM) | – | – | – | – | – | – | – | – | – | –
4 | NCC[C@@H](O)C(=O)N[C@H]1C[C@H](N)[C@@H](O[C@H]2O[C@H](CO)[C@@H](O)[C@H](O)[C@H]2N)[C@@H](O[C@H]2O[C@H](CO)[C@@H](O[C@H]3O[C@@H](CN)[C@@H](O)[C@H](O)[C@H]3N)[C@H]2OCCNCCc2ccccc2)[C@H]1O | < 0.12 µg/mL | < 0.12 µg/mL | < 0.12 µg/mL | < 0.12 µg/mL | 2 µg/mL (≈ 2.31 µM) | 128 µg/mL (≈ 148 µM) | 16 µg/mL (≈ 18.5 µM) | 8 µg/mL (≈ 9.26 µM) | 4 µg/mL (≈ 4.63 µM) | 2 µg/mL (≈ 2.31 µM) | 0.6 µg/mL (≈ 0.694 µM) | 1 µg/mL (≈ 1.16 µM) | 1 µg/mL (≈ 1.16 µM) | 2 µg/mL (≈ 2.31 µM) | < 0.12 µg/mL | < 0.12 µg/mL | 32 µg/mL (≈ 37 µM) | 128 µg/mL (≈ 148 µM) | < 0.12 µg/mL | 64 µg/mL (≈ 74.1 µM) | MIC (Staphylococcus aureus [19]): > 128 µg/mL; MIC [20]: < 0.12 µg/mL; MIC (Staphylococcus aureus [21]): 0.25 µg/mL (≈ 0.289 µM)
5 | NC[C@@H]1O[C@H](O[C@H]2[C@@H](OCCNCCc3ccccc3)[C@@H](O[C@H]3[C@@H](O)[C@@H](N)C[C@@H](N)[C@H]3O[C@H]3O[C@H](CO)CC[C@H]3N)O[C@@H]2CO)[C@H](N)[C@@H](O)[C@@H]1O | – | – | – | – | – | – | – | – | – | 40 µg/mL (≈ 54.7 µM) | 1 µg/mL (≈ 1.37 µM) | – | – | – | – | – | – | – | – | – | –
6 | NCC[C@H](O)C(=O)N[C@@H]1C[C@H](N)[C@@H](O[C@H]2O[C@H](CO)CC[C@H]2N)[C@H](O[C@@H]2O[C@H](CO)[C@@H](O[C@H]3O[C@@H](CN)[C@@H](O)[C@H](O)[C@H]3N)[C@H]2OCCNCCc2ccccc2)[C@H]1O | < 0.12 µg/mL | 0.25 µg/mL (≈ 0.3 µM) | < 0.12 µg/mL | < 0.12 µg/mL | 8 µg/mL (≈ 9.62 µM) | 0.5 µg/mL (≈ 0.601 µM) | < 0.12 µg/mL | 16 µg/mL (≈ 19.2 µM) | 8 µg/mL (≈ 9.62 µM) | 8 µg/mL (≈ 9.62 µM) | 0.6 µg/mL (≈ 0.721 µM) | 1 µg/mL (≈ 1.2 µM) | 4 µg/mL (≈ 4.81 µM) | 4 µg/mL (≈ 4.81 µM) | < 0.12 µg/mL | 0.25 µg/mL (≈ 0.3 µM) | 0.25 µg/mL (≈ 0.3 µM) | 0.5 µg/mL (≈ 0.601 µM) | < 0.12 µg/mL | 0.25 µg/mL (≈ 0.3 µM) | MIC (Staphylococcus aureus [19]): 1 µg/mL (≈ 1.2 µM); MIC [20]: < 0.12 µg/mL; MIC (Staphylococcus aureus [21]): > 0.12 µg/mL
7 | NC[C@@H]1O[C@H](O[C@H]2[C@@H](OCCNCCc3ccccc3)[C@H](O[C@@H]3[C@@H](O)[C@H](N)C[C@H](N)[C@H]3O[C@H]3O[C@H](CO)[C@@H](O)[C@H](O)[C@H]3N)O[C@@H]2CO)[C@H](N)[C@@H](O)[C@@H]1O | – | – | – | – | – | – | – | – | – | 3 µg/mL (≈ 3.93 µM) | 0.3 µg/mL (≈ 0.393 µM) | – | – | – | – | – | – | – | – | – | –
8 | NCC[C@H](O)C(=O)N[C@@H]1C[C@H](N)[C@@H](O[C@H]2O[C@H](CN)[C@@H](O)[C@H](O)[C@H]2O)[C@H](O)[C@H]1O[C@H]1O[C@H](CO)[C@@H](O)[C@H](N)[C@H]1O [AMIKACIN] | < 0.25 µg/mL | 1 µg/mL (≈ 1.71 µM) | 4 µg/mL (≈ 6.83 µM) | 0.5 µg/mL (≈ 0.854 µM) | 8 µg/mL (≈ 13.7 µM) | 16 µg/mL (≈ 27.3 µM) | 8 µg/mL (≈ 13.7 µM) | 64 µg/mL (≈ 109 µM) | 8 µg/mL (≈ 13.7 µM) | 2 µg/mL (≈ 3.42 µM) | – | 1 µg/mL (≈ 1.71 µM) | 2 µg/mL (≈ 3.42 µM) | 2 µg/mL (≈ 3.42 µM) | 8 µg/mL (≈ 13.7 µM) | 2 µg/mL (≈ 3.42 µM) | 8 µg/mL (≈ 13.7 µM) | 16 µg/mL (≈ 27.3 µM) | 4 µg/mL (≈ 6.83 µM) | 16 µg/mL (≈ 27.3 µM) | MIC (Staphylococcus aureus [19]): 16 µg/mL (≈ 27.3 µM); MIC [20]: 0.8 µg/mL (≈ 1.37 µM); MIC (Staphylococcus aureus [21]): 2 µg/mL (≈ 3.42 µM)
9 | NC[C@@H]1O[C@H](O[C@H]2[C@@H](O)[C@H](O[C@@H]3[C@@H](O)[C@H](N)C[C@H](N)[C@H]3O[C@H]3O[C@H](CN)[C@@H](O)[C@H](O)[C@H]3N)O[C@@H]2CO)[C@H](N)[C@@H](O)[C@@H]1O [FRAMYCETIN] | – | – | – | – | – | – | – | – | – | 3 µg/mL (≈ 4.88 µM) | 1 µg/mL (≈ 1.63 µM) | – | – | – | – | – | – | – | – | – | –
10 | CN[C@@H]1[C@@H](O)[C@@H](O[C@@H]2[C@@H](O)[C@H](O[C@H]3O[C@H]([C@@H](C)NC)CC[C@H]3N)[C@@H](N)C[C@H]2N)OC[C@]1(C)O [GENTAMICIN C1] | < 0.12 µg/mL | 0.25 µg/mL (≈ 0.523 µM) | 32 µg/mL (≈ 67 µM) | 0.12 µg/mL (≈ 0.251 µM) | > 128 µg/mL | 64 µg/mL (≈ 134 µM) | 32 µg/mL (≈ 67 µM) | > 128 µg/mL | 4 µg/mL (≈ 8.38 µM) | 1 µg/mL (≈ 2.09 µM) | – | 0.5 µg/mL (≈ 1.05 µM) | 64 µg/mL (≈ 134 µM) | 64 µg/mL (≈ 134 µM) | 64 µg/mL (≈ 134 µM) | 0.25 µg/mL (≈ 0.523 µM) | 32 µg/mL (≈ 67 µM) | 64 µg/mL (≈ 134 µM) | 16 µg/mL (≈ 33.5 µM) | 32 µg/mL (≈ 67 µM) | MIC (Staphylococcus aureus [19]): 128 µg/mL (≈ 268 µM); MIC [20]: < 0.12 µg/mL; MIC (Staphylococcus aureus [21]): 0.5 µg/mL (≈ 1.05 µM)
11 | NC[C@@H]1O[C@H](O[C@H]2[C@@H](O)[C@H](O[C@@H]3[C@@H](O)[C@H](N)C[C@H](N)[C@H]3O[C@H]3O[C@H](CO)[C@@H](O)[C@H](O)[C@H]3N)O[C@@H]2CO)[C@H](N)[C@@H](O)[C@@H]1O [PAROMOMYCIN] | – | – | – | – | – | – | – | – | – | 3 µg/mL (≈ 4.87 µM) | 1 µg/mL (≈ 1.62 µM) | – | – | – | – | – | – | – | – | – | –

From ChEMBL document CHEMBL1287692, “Structure-based design, synthesis and A-site rRNA co-crystal complexes of novel amphiphilic aminoglycoside antibiotics with new binding modes: a synergistic hydrophobic effect against resistant bacteria” (2010)
